Measured values taken from ChEMBL document CHEMBL1201862, “PubChem BioAssay data set” (2004).
Counter-ions that a name gives are not always drawn.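 48-hour exposure; five concentrations; linearly interpolated endpoints. At the GI50, growth is halved.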 Active and inactive are the calls of the source. Cut-off read from the data, not from the text of the source: active = GI50 up to about 1.1 µM and inactive = higher.

Legend:
Assay in all cases: inhibition of tumour cell growth, NCI panel, 48 h
[1] = tested on: U-251
[2] = tested on: ACHN
[3] = tested on: T47D
[4] = tested on: Malme-3M
[5] = tested on: IGROV-1
[6] = tested on: SNB-19
[7] = tested on: OVCAR-3
[8] = tested on: HOP-92
[9] = tested on: HCC 2998
[10] = tested on: UACC-62
[11] = tested on: NCI/ADR-RES
[12] = tested on: MDA-MB-435
[13] = tested on: HT-29
[14] = tested on: SK-MEL-28
[15] = tested on: SR
[16] = tested on: MCF7
[17] = tested on: PC-3
[18] = tested on: HCT-116
[19] = tested on: OVCAR-5
[20] = tested on: NCI-H460

Measured: GI50

CC12CCCC(O)C1CCC1=CC3(CCC12)SCCS3 (stereo not given)
inactive: [1] > 10 µM | [2] > 10 µM | [3] > 10 µM | [4] > 10 µM | [5] > 10 µM | [6] > 10 µM | [7] > 10 µM | [8] > 10 µM | [9] > 10 µM | [10] > 10 µM | [11] > 10 µM | [12] > 10 µM | [13] > 10 µM | [14] > 10 µM | [15] > 10 µM | [16] > 10 µM | [17] > 10 µM

O=C1C(Cl)C(c2cc3cc(Br)ccc3nc2Cl)N1c1ccc(Cl)cc1 (stereo not given)
inactive: [2] 4.5 µM | [18] 5.31 µM | [3] 6.65 µM | [4] 4.56 µM | [5] 3.02 µM | [6] 8.43 µM | [7] 5.41 µM | [8] 3.43 µM | [9] 4.36 µM | [19] 10.7 µM | [10] 4.22 µM | [11] 5.75 µM | [12] 5.82 µM | [20] 6.59 µM | [13] 7.16 µM | [14] 11.1 µM | [15] 1.64 µM | [16] 3.74 µM | [17] 5.69 µM

O=C1c2cccc([N+](=O)[O-])c2C(=O)N1c1ncn[nH]1
inactive: [1] 38.6 µM | [2] > 100 µM | [18] > 100 µM | [3] > 100 µM | [4] > 100 µM | [5] > 100 µM | [6] 29.7 µM | [7] > 100 µM | [8] 21.4 µM | [19] > 100 µM | [10] > 100 µM | [11] > 100 µM | [12] > 100 µM | [20] > 100 µM | [13] > 100 µM | [14] > 100 µM | [15] > 100 µM | [16] > 100 µM | [17] > 100 µM

C1CSCCSS[C@@H]2CCCCC2SC1 (stereo not given in full)
inactive: [1] > 100 µM | [18] 81.8 µM | [3] > 100 µM | [5] > 100 µM | [6] > 100 µM | [7] > 100 µM | [8] 29.2 µM | [9] > 100 µM | [19] > 100 µM | [10] > 100 µM | [11] > 100 µM | [12] > 100 µM | [20] > 100 µM | [13] > 100 µM | [14] > 100 µM | [15] > 100 µM | [16] > 100 µM | [17] > 100 µM

Cc1nnc2ccccc2c1O
inactive: [1] > 100 µM | [2] > 100 µM | [18] > 100 µM | [3] > 100 µM | [4] > 100 µM | [5] > 100 µM | [6] > 100 µM | [7] > 100 µM | [8] > 100 µM | [19] > 100 µM | [10] > 100 µM | [11] > 100 µM | [12] > 100 µM | [20] > 100 µM | [13] > 100 µM | [14] > 100 µM | [15] 25.9 µM | [16] > 100 µM | [17] > 100 µM

COc1ccc([C@@]23OC[C@@H]4[C@@H](OC[C@@H]42)c2cc(OC)c(OC)cc23)cc1OC
inactive: [1] > 100 µM | [2] > 100 µM | [18] > 100 µM | [3] > 100 µM | [4] > 100 µM | [5] > 100 µM | [6] > 100 µM | [7] > 100 µM | [9] > 100 µM | [19] > 100 µM | [10] > 100 µM | [11] > 100 µM | [12] > 100 µM | [20] > 100 µM | [14] > 100 µM | [15] > 100 µM | [16] > 100 µM | [17] > 100 µM

CCOC(=O)c1nc2ccc(C(F)(F)F)cc2nc1NCc1ccc(OC)cc1
inactive: [1] > 100 µM | [2] 92.5 µM | [18] 53.1 µM | [3] 80.7 µM | [4] 34.4 µM | [5] > 100 µM | [6] > 100 µM | [7] 71.8 µM | [8] 47.5 µM | [19] > 100 µM | [10] > 100 µM | [11] 68.4 µM | [12] > 100 µM | [20] 28 µM | [13] 55.8 µM | [15] 28.2 µM | [16] 43.2 µM | [17] 56.6 µM

CSc1c2c(C)n[nH]c2nn1-c1ccccc1
inactive: [1] 61.4 µM | [18] 45.4 µM | [3] 85.1 µM | [4] > 100 µM | [6] > 100 µM | [7] 39.3 µM | [9] 57.8 µM | [19] > 100 µM | [10] 68.1 µM | [11] > 100 µM | [12] > 100 µM | [20] > 100 µM | [13] 36 µM | [14] > 100 µM | [15] 20.2 µM | [16] 92 µM | [17] 58.7 µM

COc1ccc2c(c1)CN1C(=N2)CSC1c1c(Cl)cccc1[N+](=O)[O-] (stereo not given)
inactive: [1] 18.7 µM | [2] 30.5 µM | [18] 15.6 µM | [3] 31 µM | [4] 30.2 µM | [5] 31 µM | [6] 29.9 µM | [8] 16.7 µM | [9] 22.7 µM | [19] 26.4 µM | [10] 20 µM | [11] 15.1 µM | [12] 20.1 µM | [20] 14.7 µM | [13] 17.9 µM | [14] 18.5 µM | [15] 15.6 µM | [16] 14.4 µM | [17] 23.8 µM

O=[N+]([O-])C(=C(N1CCOCC1)N1CCOCC1)/C(Cl)=C(\Cl)[N+](=O)[O-]
inactive: [1] 18.9 µM | [2] 6.31 µM | [18] 2 µM | [3] 1.96 µM | [4] 1.68 µM | [5] 1.41 µM | [6] 25.8 µM | [7] 4.54 µM | [9] 20.4 µM | [19] 14.6 µM | [10] 16.6 µM | [11] 21.4 µM | [12] 10.3 µM | [20] 25.2 µM | [13] 4.1 µM | [14] 14.3 µM | [15] 8.77 µM | [16] 2.67 µM | [17] 16.4 µM

CN(C)CCOC(c1ccccc1)c1ccccc1 [DIPHENHYDRAMINE HYDROCHLORIDE]
inactive: [2] > 100 µM | [18] > 100 µM | [3] > 100 µM | [4] > 100 µM | [5] > 100 µM | [7] > 100 µM | [8] 25 µM | [9] > 100 µM | [19] > 100 µM | [11] > 100 µM | [12] > 100 µM | [20] > 100 µM | [13] > 100 µM | [14] > 100 µM | [15] 38.5 µM | [16] > 100 µM | [17] > 100 µM
